Patent US9273151B2, “Proteinaceous-substance-binding low-molecular-weight compound” (Kaneka Corporation, priority 2011, dated 2016)

Each compound was assayed on IgG-Fc (Fc fragment of IgG preparation derived from human plasma) (assay: Biacore 3000 surface plasmon resonance analysis of the affinity of the low-molecular-weight compound for IgG-Fc). Settings: IgG-Fc immobilized on sensor chip CM5; compound 25 μM to 100 μM in running buffer pH 7.4, 5% DMSO; 25° C.; 1:1 binding model fit.
Method: An Fc fragment was prepared by fragmenting an IgG preparation derived from human plasma as a raw material into a Fab fragment and an Fc fragment using papain and separating the Fc fragment only to be purified. Gammagard, which is an IgG preparation derived from human plasma and which was manufactured by Baxter, was dissolved into a buffer solution for papain digestion which contained 0.1 M AcOH—AcONa, 2 mM EDTA and 1 mM cysteine and of which pH was 5.5, and Papain Agarose from papaya latex (papain-immobilized agarose, manufactured by SIGMA) was added to the solution. The mixture was mixed using a rotator and incubated at 37° C. for about 8 hours. The reaction mixture, which contained both of a Fab fragment and an Fc fragment, was separated from the papain-immobilized agarose. The Fc fragment was separated to be purified from the reaction mixture by affinity chromatography using Protein A column (MabSelect, manufactured by GE Healthcare Company). Hereinafter, the Fc fragment is referred to as “IgG-Fc”. Specifically, the reaction mixture, which contained both of a Fab fragment and an Fc fragment, was diluted with a phosphate buffer (20 mM NaH2PO4—Na2HPO4, 150 mM NaCl, pH 7.4) so that the pH became about 7.4. The diluted mixture was added to a Protein A column which was equilibrated using a phosphate buffer, and the column was washed with a phosphate buffer. Then, an IgG-Fc solution was obtained by using an eluent buffer B (100 mM citric acid, pH 3.0) to elute the IgG-Fc. The above-described protein purification by chromatography was carried out using AKTAprime plus system manufactured by GE Healthcare Company.
The analysis of the affinity between the low-molecular-weight compound and IgG-Fc was carried out using Biacore 3000, which was manufactured by GE Healthcare Company and in which surface plasmon resonance was utilized, under the following protocol. All of the sensor chip and reagents used in the following protocol were manufactured by GE Healthcare Company. The low-molecular-weight compounds (2) to (17) of which binding properties were evaluated were obtained from Namiki Shoji Co., Ltd.
The IgG-Fc obtained in the Example 1 was diluted 50-fold with a buffer for immobilization (10 mM CH3COOH—CH3COONa, pH 4.5), and the IgG-Fc was immobilized on a sensor chip CM5 in accordance with the protocol provided with Biacore 3000. The immobilization of the IgG-Fc on the sensor chip CM5 was carried out by amine coupling method using N-hydroxysuccinimide (NHS) and N-ethyl-N′-(3-dimethylaminopropyl)carbodiimide hydrochroride (EDC), and ethanolamine was used for blocking. In addition, a reference cell was prepared as a negative control by activating other flow cell on a chip by EDC/NHS and then immobilizing ethanolamine.
A ligand of any one of the low-molecular-weight compounds (2) to (17) was flowed on the above sensor chip to detect an interaction. Specifically, each of the low-molecular-weight compound (2) to (17) to be measured was diluted with a running buffer (20 mM NaH2PO4—Na2HPO4, 150 mM NaCl, 0.005% P-20, 5% DMSO, pH 7.4) to prepared three or four kinds of diluted solutions of which concentrations were different each other within the range of 25 μM to 100 μM with respect to each compound. The prepared solutions of the each low-molecular-weight compound were added to the sensor chip at a flow rate of 30 μL/min for 120 seconds. Binding reaction curves were orderly observed at the time of addition (binding phase, for 120 seconds) and after the addition (dissociation phase, for 120 second) at the measurement temperature of 25° C. After the each observation, 40 mM NaOH was added for 15 seconds to regenerate the sensor chip. A binding reaction curve of a sample containing DMSO was corrected using a Biacore correction tool manufactured by GE Healthcare Company with respect to the obtained binding curves (see FIGS. 1 to 4). […]

SMILES | KA × 10^4 (M^−1), coupling/binding constant KA=Kon/Koff
O=C1Sc2c(S(=O)(=O)Nc3ccc(O)cc3)cc(S(=O)(=O)Nc3ccc(O)cc3)c3cccc1c23 [(11)] | 0.37 × 10^4 M^−1
O=C(CSc1ncnc2c1cnn2-c1ccccc1)c1ccc(O)c(O)c1 [(3)] | 5.1 × 10^4 M^−1
Nc1ccc(Oc2nc(Oc3ccc(N)cc3)c(F)c(Oc3ccc(N)cc3)c2F)cc1 [(12)] | 0.2 × 10^4 M^−1
O=C1N/C(=C\c2ccc(O)c(Br)c2)C(=O)N1Cc1ccc(Cl)cc1 [(9)] | 0.48 × 10^4 M^−1
Oc1ccc(-c2csc(COc3ccccc3)n2)cc1O [(10)] | 0.4 × 10^4 M^−1
CN(c1ccc(O)cc1)c1ncc([N+](=O)[O-])c(N(C)c2ccc(O)cc2)n1 [(7)] | 0.96 × 10^4 M^−1
CC(C)(c1ccc(O)cc1)c1cccc(C(C)(C)c2ccc(O)cc2)c1 [(6)] | 2.9 × 10^4 M^−1
O=C(CSc1nnc2sc3ccccc3n12)c1ccc(O)c(O)c1 [(4)] | 5.1 × 10^4 M^−1
O=C(CSc1nnc(SCc2cccc3ccccc23)s1)c1ccc(O)c(O)c1 [(5)] | 4.6 × 10^4 M^−1
Nc1cccc(Oc2cccc(Oc3cccc(N)c3)c2)c1 [(8)] | 0.95 × 10^4 M^−1

Further lines, results first:

KA × 10^4 (M^−1), coupling/binding constant KA=Kon/Koff | SMILES
13 × 10^4 M^−1 | O=c1cc(CSc2ncnc3c2cnn3-c2ccccc2)c2cc(O)c(O)cc2o1 [compound (2)]
0.05 × 10^4 M^−1 | Cc1cc(C(=O)CSc2nc(N)cc(N)n2)c(C)n1Cc1ccc2c(c1)OCO2 [(17)]
0.16 × 10^4 M^−1 | CN(c1ccc(O)cc1)c1nc(S(=O)(=O)c2ccccc2)c(Cl)s1 [(14)]
0.06 × 10^4 M^−1 | Cc1ccc(OCc2nc(CSc3nc(N)cc(N)n3)cs2)cc1 [(16)]
0.17 × 10^4 M^−1 | CC(Sc1nnnn1-c1ccc(O)cc1)C(=O)c1ccc(F)c(F)c1 (stereo not shown) [(13)]
0.12 × 10^4 M^−1 | Cc1ccc(C(=O)C(C)Sc2nnnn2-c2ccc(O)cc2)cc1 (stereo not shown) [(15)]
